Patent publication US3983105A, “Penicillins” (Bayer Aktiengesellschaft, priority 1971, dated 1976)
Read-outs that look alike come from different tables or passages of the source.

Experiments:
Escherichia coli = experiment: MIC, test tube serial dilution, Escherichia coli; assay type: cell-based
Pseudomonas aeruginosa = experiment: MIC, test tube serial dilution, Pseudomonas aeruginosa; assay type: cell-based
Staphylococcus aureus = experiment: MIC, test tube serial dilution, Staphylococcus aureus; assay type: cell-based
Proteus vulgaris = experiment: MIC, test tube serial dilution, Proteus vulgaris; assay type: cell-based
Klebsiella-Aerobacter [1] = conditions: in vivo; cited from earlier work
Klebsiella-Aerobacter [2] = experiment: MIC, test tube serial dilution, Klebsiella-Aerobacter; assay type: cell-based
Proteus rettgeri = experiment: MIC, test tube serial dilution, Proteus rettgeri; assay type: cell-based
Proteus morganii = experiment: MIC, test tube serial dilution, Proteus morganii; assay type: cell-based
Haemophilus influenzae = experiment: MIC, test tube serial dilution, Haemophilus influenzae; assay type: cell-based
Providencia = experiment: MIC, test tube serial dilution, Providencia; assay type: cell-based
Proteus mirabilis = experiment: MIC, test tube serial dilution, Proteus mirabilis; assay type: cell-based
Streptococcus faecalis = experiment: MIC, test tube serial dilution, Streptococcus faecalis; assay type: cell-based
Serratia marcescens = experiment: MIC, test tube serial dilution, Serratia marcescens; assay type: cell-based

## CC1(C)S[C@@H]2[C@H](NC(=O)[C@H](N)c3ccccc3)C(=O)N2[C@H]1C(=O)O [Ampicillin, α-aminobenzylpenicillin, reference compound]
Escherichia coli; Table 3, strain 183/58
  MIC: 200 U/ml
Escherichia coli; Table 3, strain A 261
  MIC: > 400 U/ml
Escherichia coli; Table 3, strain C 165
  MIC: 6 U/ml
Escherichia coli; strain 183/58, 24 hours, 37°C
  MIC: 200 U/ml
Escherichia coli; strain A 261, 24 hours, 37°C
  MIC: > 400 U/ml
Pseudomonas aeruginosa; Table 3, strain Walter
  MIC: 200 U/ml
Pseudomonas aeruginosa; strain Bonn, 24 hours, 37°C
  MIC: 200 U/ml
Pseudomonas aeruginosa; strain Walter, 24 hours, 37°C
  MIC: 200 U/ml
Staphylococcus aureus; Table 3, strain 133
  MIC: < 1 U/ml
Proteus vulgaris; Table 3, strain 1017
  MIC: 400 U/ml
Proteus vulgaris; strain 1017, 24 hours, 37°C
  MIC: 400 U/ml
Klebsiella-Aerobacter [1]
  effectiveness against infections: not able to combat infections
Klebsiella-Aerobacter [2]; Table 3, strain 63
  MIC: 100-200 U/ml
Klebsiella-Aerobacter [2]; Table 3, strain K 10
  MIC: 100-200 U/ml

## CC1(C)S[C@@H]2[C@H](NC(=O)C(C(=O)O)c3ccccc3)C(=O)N2[C@H]1C(=O)O (stereo partly drawn) [Carbenicillin, reference compound]
Escherichia coli; strain 14, 24 hours, 37°C
  MIC: 1.6 U/ml
Escherichia coli; strain 1465
  MIC: > 400 U/ml
Escherichia coli; strain A 261, 24 hours, 37°C
  MIC: 400 U/ml
Escherichia coli; strain B 94
  MIC: 1.6 U/ml
Escherichia coli; strain N
  MIC: 6 U/ml
Escherichia coli; strain S
  MIC: 400 U/ml
Escherichia coli; strain T 7
  MIC: > 400 U/ml
Escherichia coli; strain T 20/2
  MIC: > 400 U/ml
Proteus rettgeri; Sp.
  MIC: 1.6 U/ml
Proteus rettgeri; strain 1 050
  MIC: > 400 U/ml
Proteus rettgeri; strain 824
  MIC: > 400 U/ml
Proteus morganii; strain 1 102
  MIC: > 800 U/ml
Proteus morganii; strain 932, 24 hours, 37°C
  MIC: 6 U/ml
Haemophilus influenzae; strain 2 689
  MIC: 1.6 U/ml
Haemophilus influenzae; strain 2 718
  MIC: 0.8 U/ml
Haemophilus influenzae; strain 2 786
  MIC: 1.6 U/ml
Haemophilus influenzae; strain 2 788
  MIC: < 0.4 U/ml
Pseudomonas aeruginosa; strain A
  MIC: 25 U/ml
Pseudomonas aeruginosa; strain Bonn, 24 hours, 37°C
  MIC: 200 U/ml
Pseudomonas aeruginosa; strain E 27 500
  MIC: 100 U/ml
Pseudomonas aeruginosa; strain F 41, 24 hours, 37°C
  MIC: 100 U/ml
Pseudomonas aeruginosa; strain V 10 797
  MIC: 50 U/ml
Pseudomonas aeruginosa; strain V 10 818
  MIC: 100 U/ml
Pseudomonas aeruginosa; strain V 10 887
  MIC: 100 U/ml
Pseudomonas aeruginosa; strain V 10 900
  MIC: 50 U/ml
Pseudomonas aeruginosa; strain Walter, 24 hours, 37°C
  MIC: 100 U/ml
Staphylococcus aureus; strain P 209
  MIC: < 0.8 U/ml
Staphylococcus aureus; strain SG 511
  MIC: < 0.8 U/ml
Proteus vulgaris; strain 3 400
  MIC: 50 U/ml
Providencia; strain 930
  MIC: 6 U/ml
Klebsiella-Aerobacter [1]
  effectiveness against infections: only effective in man in the case of infections caused by Klebsiella-Aerobacter if administered in a continuous high dosage
Proteus mirabilis; Sp.
  MIC: 1.6 U/ml
Proteus mirabilis; strain 605
  MIC: 400 U/ml
Proteus mirabilis; strain G.
  MIC: 1.6 U/ml
Streptococcus faecalis; strain 8 698
  MIC: 100 U/ml
Streptococcus faecalis; strain 8 709
  MIC: 200 U/ml
Streptococcus faecalis; strain 8 711
  MIC: 50 U/ml
Serratia marcescens; strain 3
  MIC: 400 U/ml
Serratia marcescens; strain 7
  MIC: 100 U/ml
Serratia marcescens; strain 9
  MIC: 6 U/ml
Serratia marcescens; strain 13
  MIC: 6 U/ml
Serratia marcescens; strain K
  MIC: 6 U/ml
Klebsiella-Aerobacter [2]; aerogenes 418
  MIC: 400 U/ml
Klebsiella-Aerobacter [2]; strain 60
  MIC: 100 U/ml
Klebsiella-Aerobacter [2]; strain 62
  MIC: 100 U/ml
Klebsiella-Aerobacter [2]; strain 63, 24 hours, 37°C
  MIC: 400 U/ml
Klebsiella-Aerobacter [2]; strain 69
  MIC: > 400 U/ml
Klebsiella-Aerobacter [2]; strain 70
  MIC: 400 U/ml
Klebsiella-Aerobacter [2]; strain 75
  MIC: > 400 U/ml
Klebsiella-Aerobacter [2]; strain 1852
  MIC: > 400 U/ml
Klebsiella-Aerobacter [2]; strain 1871
  MIC: 400 U/ml
Klebsiella-Aerobacter [2]; strain K 10, 24 hours, 37°C
  MIC: > 400 U/ml

## CC1(C)S[C@@H]2[C@H](NC(=O)[C@H](NC(=O)N3CCN(S(C)(=O)=O)C3=O)c3ccccc3)C(=O)N2[C@H]1C(=O)O [Example 4, Sodium D(-)-α-[(3-methylsulphonyl-imidazolidin-2-on-1-yl)-carbonylamino]-benzylpencillin]
Escherichia coli; strain 26/6
  MIC: < 0.8 U/ml
Escherichia coli; strain 55 B 5
  MIC: < 0.8 U/ml
Escherichia coli; strain 183/58, 24 hours, 37°C
  MIC: 1 - 4 U/ml
Escherichia coli; strain 1465
  MIC: > 400 U/ml
Escherichia coli; strain A 261, 24 hours, 37°C
  MIC: 32 - 64 U/ml
Escherichia coli; strain B
  MIC: < 0.8 U/ml
Escherichia coli; strain B 94
  MIC: < 0.8 U/ml
Escherichia coli; strain C 165, 24 hours, 37°C
  MIC: 1 - 4 U/ml
Escherichia coli; strain N
  MIC: 1.6 U/ml
Escherichia coli; strain S
  MIC: 32 U/ml
Escherichia coli; strain T 7
  MIC: > 400 U/ml
Escherichia coli; strain T 20/2
  MIC: > 400 U/ml
Proteus rettgeri; Sp.
  MIC: 0.8 U/ml
Proteus rettgeri; strain 1 050
  MIC: > 400 U/ml
Proteus rettgeri; strain 824
  MIC: > 400 U/ml
Proteus morganii; Sp.
  MIC: 3 U/ml
Proteus morganii; strain 1 102
  MIC: 200 U/ml
Haemophilus influenzae; strain 2 684
  MIC: 0.1 U/ml
Haemophilus influenzae; strain 2 689
  MIC: 0.25 U/ml
Haemophilus influenzae; strain 2 718
  MIC: 0.1 U/ml
Haemophilus influenzae; strain 2 786
  MIC: 0.06 U/ml
Haemophilus influenzae; strain 2 788
  MIC: 0.5 U/ml
Pseudomonas aeruginosa; strain A
  MIC: 12.5 U/ml
Pseudomonas aeruginosa; strain Bonn, 24 hours, 37°C
  MIC: 16 - 32 U/ml
Pseudomonas aeruginosa; strain E 27 500
  MIC: 12.5 U/ml
Pseudomonas aeruginosa; strain V 10 797
  MIC: 12.5 U/ml
Pseudomonas aeruginosa; strain V 10 818
  MIC: 25 U/ml
Pseudomonas aeruginosa; strain V 10 887
  MIC: 12.5 U/ml
Pseudomonas aeruginosa; strain V 10 900
  MIC: 12.5 U/ml
Pseudomonas aeruginosa; strain Walter, 24 hours, 37°C
  MIC: 4-16 U/ml
Staphylococcus aureus
  MIC: 200 U/ml
Staphylococcus aureus; strain 1756 (BRL 1 756), 24 hours, 37°C
  MIC: 64-256 U/ml
Staphylococcus aureus; strain P 209
  MIC: < 0.8 U/ml
Staphylococcus aureus; strain SG 511
  MIC: < 0.8 U/ml
Proteus vulgaris; strain 3 400
  MIC: 6 U/ml
Proteus vulgaris; strain 1017, 24 hours, 37°C
  MIC: 1.6 U/ml
Providencia; strain 930
  MIC: < 0.8 U/ml
Providencia; strain 933
  MIC: 12.5 U/ml
Providencia; strain 945
  MIC: < 0.8 U/ml
Proteus mirabilis; Sp.
  MIC: 1.6 U/ml
Proteus mirabilis; strain 1 235
  MIC: 1.6 U/ml
Proteus mirabilis; strain 605
  MIC: 3 U/ml
Proteus mirabilis; strain G.
  MIC: < 0.4 U/ml
Streptococcus faecalis; ATCC 9790, 24 hours, 37°C
  MIC: 16-32 U/ml
Streptococcus faecalis; strain 8 698
  MIC: 1.6 U/ml
Streptococcus faecalis; strain 8 709
  MIC: 12.5 U/ml
Streptococcus faecalis; strain 8 711
  MIC: 3 U/ml
Serratia marcescens; strain 2
  MIC: 1.6 U/ml
Serratia marcescens; strain 3
  MIC: 12.5 U/ml
Serratia marcescens; strain 4
  MIC: 1.6 U/ml
Serratia marcescens; strain 6
  MIC: 1.6 U/ml
Serratia marcescens; strain 7
  MIC: 1.6 U/ml
Serratia marcescens; strain 9
  MIC: < 0.8 U/ml
Serratia marcescens; strain 13
  MIC: < 0.8 U/ml
Serratia marcescens; strain K
  MIC: < 0.8 U/ml
Klebsiella-Aerobacter [2]
  MIC: < 0.8 U/ml
Klebsiella-Aerobacter [2]; aerogenes 418
  MIC: 3 U/ml
Klebsiella-Aerobacter [2]; strain 62
  MIC: 1.6 U/ml
Klebsiella-Aerobacter [2]; strain 63, 24 hours, 37°C
  MIC: 4 - 16 U/ml
Klebsiella-Aerobacter [2]; strain 69
  MIC: 1.6 U/ml
Klebsiella-Aerobacter [2]; strain 70
  MIC: 3 U/ml
Klebsiella-Aerobacter [2]; strain 75
  MIC: 6 U/ml
Klebsiella-Aerobacter [2]; strain 1852
  MIC: > 400 U/ml
Klebsiella-Aerobacter [2]; strain 1871
  MIC: 6 U/ml
Klebsiella-Aerobacter [2]; strain K 10, 24 hours, 37°C
  MIC: 4 - 16 U/ml

## CC(=O)N1CCN(C(=O)NC(C(=O)N[C@@H]2C(=O)N3[C@@H]2SC(C)(C)[C@@H]3C(=O)O)c2c(Cl)cccc2Cl)C1=O (stereo partly drawn) [Penicillin No. 10 (Table 3), Sodium D,L-α-[(3-acetyl-imidazolidin-2-on-1-yl)carbonylamino]-2,6-dichloro-benzylpenicillin]
Escherichia coli; Table 3, strain 14
  MIC: 128 U/ml
Escherichia coli; Table 3, strain 183/58
  MIC: 256 U/ml
Escherichia coli; Table 3, strain A 261
  MIC: > 512 U/ml
Escherichia coli; Table 3, strain C 165
  MIC: 512 U/ml
Proteus morganii; Table 3, strain 932
  MIC: 256 U/ml
Pseudomonas aeruginosa; Table 3, strain F 41
  MIC: > 512 U/ml
Pseudomonas aeruginosa; Table 3, strain Walter
  MIC: > 512 U/ml
Staphylococcus aureus; Table 3, strain 133
  MIC: 16 U/ml
Staphylococcus aureus; Table 3, strain 1756E
  MIC: 512 U/ml
Proteus vulgaris; Table 3, strain 1017
  MIC: 256 U/ml
Streptococcus faecalis; Table 3, ATCC 9790
  MIC: > 512 U/ml
Klebsiella-Aerobacter [2]; Table 3, strain 63
  MIC: > 512 U/ml
Klebsiella-Aerobacter [2]; Table 3, strain K 10
  MIC: > 512 U/ml
